The values that follow come from patent US20140148498A1, “METHODS AND COMPOSITIONS FOR THE TREATMENT OF MARFAN SYNDROME AND ASSOCIATED DISORDERS” (THE JOHNS HOPKINS UNIVERSITY, priority 2011, published 2014).

“Also recorded” adds a separate entry of the source.

For one assay, the system named is Fbn1^C1039G/+ mice. Nature of the assay: Aortic wall architecture score (VVG staining). It counts as in vivo. To be noted: FIG. 9. The procedure: Latex-infused ascending aortas were transected just above the level of the aortic valve, and 2-3 mm transverse sections were mounted in 4% agar prior to paraffin fixation. Five micrometer aortic sections underwent Verhoeff-van Giesen (VVG) staining and were imaged at 40× magnification, using a Nikon Eclipse E400 microscope. Wall thickness of the aortic media was measured by a single blinded observer at 16 different locations around the most proximal ascending aortic ring and averaged. Wall architecture of 4 representative sections for each mouse was assessed by the same 3 blinded observers and graded on an arbitrary scale of 1 (indicating no breaks in the elastic fiber) to 5 (indicating diffuse fragmentation), and the results were averaged. Elastic fiber content was quantified in four separate representative images of each section of the most proximal ascending aorta by a single blinded observer, using NIS Elements Advanced Research (Nikon, Japan). The aortic media and the elastic fibers were individually outlined and their areas calculated. The respective areas were averaged from all the images of a given aortic section and the ratio of elastic fiber content to total aortic media was determined. Individual lobes of the lungs were mounted in 4% agar and fixed in paraffin. Five micrometer lung sections underwent hematoxylin and eosin staining and were imaged at 10× magnification, using a Nikon Eclipse E400 microscope. Five fields were analyzed for each lobe of each lung by a single blinded observer, and a mean linear intercept was calculated using a previously described method (J. P. Habashi et al., Science 312, 117 (2006); and E. R. Neptune et al., Nat. Genet. 33, 407 (2003)).

The next assay deals with AT2KO:Fbn1^C1039G/+ mice. As to the kind of experiment: Systolic blood pressure by tail cuff, MFS mice lacking AT2. It is filed as in vivo. To be noted: AT2KO:Fbn1^C1039G/+ versus Fbn1^C1039G/+ mice, FIG. 8. The procedure: Mice were started on medication at 8 weeks of age and continued for 7 months. Losartan was dissolved in drinking water and filtered to reach a concentration of 0.6 g/L, giving an estimated daily dose of 40-60 mg/kg/day. Enalapril was dissolved in drinking water and filtered to reach a final concentration of 0.15 g/L, giving an estimated daily dose of 10-15 mg/kg/day. […] Spironolactone was dissolved in drinking water and filtered to give an estimated dose of 20 mg/kg/day, a dose previously shown to have in-vivo phenotypic benefit in cardiovascular disease states (S. Sakurabayashi-Kitade et al., Atherosclerosis 206, 54 (2009)). Placebo-treated animals received regular drinking water. Blood pressures were analyzed by taking 20 tail cuff blood pressures per day over 5 days in each mouse to habituate the mice to the tail cuff pressure system, and the blood pressures obtained on the last day were averaged. At least 4 mice for each treatment group were analyzed.

In a further assay the test system is WT mice. As to the kind of experiment: Aortic root growth by echocardiography, 7 months of treatment, WT littermates. It counts as in vivo. The procedure: A head-to-head comparison of ACEi versus ARBs was performed. Fbn1^C1039G/+ mice and WT littermates were treated with hemodynamically equivalent doses (FIG. 8) of either the ACEi enalapril (10 to 15 mg/kg of body weight per day) or the ARB losartan (40 to 60 mg/kg per day) (R. D. Patten et al., Clin. Sci 104, 109 (2003)), beginning at 8 weeks of age, and were assessed with serial echocardiograms. […] It is noteworthy that losartan reduced aortic root growth in Fbn1^C1039G/+ mice, but had no effect in WT littermates (P=0.27). […] Whether AT2 signaling is needed to achieve losartan's full therapeutic benefit was assessed. […]
All mice were cared for under strict compliance with the Animal Care and Use Committee of the Johns Hopkins University School of Medicine. […] Mice that were analyzed for Western Blot analysis had their proximal ascending aortas (root to right brachiocephalic trunk) immediately dissected out, flash frozen in liquid nitrogen and stored at −80d until further processing. Mice that were analyzed for aortic histology had latex injected under low pressure into the left ventricular apex until it was visible in the descending abdominal aorta. Mice that were analyzed for lung histology had their trachea intubated with a 20-gauge blunted needle, and 0.5% agar was infused under a low and constant pressure to gradually inflate the lungs. […]

Another assay concerns ERK1/2. As to the kind of experiment: Western blot of aortic root and proximal ascending aorta: ERK1/2 activation (Examples 4-5). It counts as in vivo, mice. From the text: All mice were cared for under strict compliance with the Animal Care and Use Committee of the Johns Hopkins University School of Medicine. The Fbn1^C1039G/+ and AT2KO lines were maintained n a pure C57BL/6 background (backcrossed for greater than 9 generations), allowing for valid comparisons. In order to further accommodate the potential for temporal- or background-specified variation, all comparisons were made between contemporary littermates when possible. The AT21C0 mice were obtained as a generous gift from Dr. Inagami (T. Ichiki et al., Nature 377, 748 (1995)). The Agtr2 gene resides on the X chromosome and therefore we used either male mice carrying the mutated allele (who are hemizygous) or homozygous females, both of which have been previously shown to be functionally null for the AT2 receptor (T. Ichiki et al., Nature 377, 748 (1995)). Mice were sacrificed with an inhalation overdose of halothane (Sigma-Aldrich, St. Louis). Mice underwent immediate laparotomy, descending abdominal aortic transection, and PBS (pH 7.4) was infused through the right and left ventricles to flush out the blood. Mice that were analyzed for Western Blot analysis had their proximal ascending aortas (root to right brachiocephalic trunk) immediately dissected out, flash frozen in liquid nitrogen and stored at −80d until further processing. Mice that were analyzed for aortic histology had latex injected under low pressure into the left ventricular apex until it was visible in the descending abdominal aorta. Mice that were analyzed for lung histology had their trachea intubated with a 20-gauge blunted needle, and 0.5% agar was infused under a low and constant pressure to gradually inflate the lungs. […]
Mouse aortic root and ascending aortas (aortic root excluding the aortic valve to origin of right brachiocephalic trunk) were harvested, snap-frozen in liquid nitrogen and stored at −80° C. until processed. […] Equal protein loading of samples was determined by a protein assay (BioRad, CA), and confirmed by probing with antibodies against β-Actin or GAPDH (Sigma, Mo.). […]
(Immunoblotting shows a protein as a band on a membrane.)

With `CCCCc1nc(Cl)c(CO)n1Cc1ccc(-c2ccccc2-c2nn[nH]n2)cc1` [losartan], the “Aortic wall architecture score” value in the assay with Fbn1^C1039G/+ mice is “significantly more beneficial than both placebo and enalapril treatment; also recorded: significant improvement”. For the same molecule, the Systolic blood pressure entry with AT2KO:Fbn1^C1039G/+ mice was “no difference in blood pressure between the groups; also recorded: lowered blood pressure equally”. Also, the “Aortic root growth over 7 months of treatment” value in the assay with WT mice (WT littermates) is given as “had no effect”. The “Final absolute aortic root diameter” value in the assay on WT mice (WT mice, 7 months of treatment, FIG. 2B, mean +/- 2 SEM) is 1.77+/−0.15 mm. Besides, the ERK1/2 activation entry is reported as “ability to inhibit ERK1/2 activation is lost; also recorded: reduced ability to lower ERK1/2 activation; also recorded: loses its ability to decrease ERK1/2 activation” in the assay with ERK1/2 (AT2KO:Fbn1^C1039G/+ mice, FIG. 10C and 14); “reduced it to WT levels; also recorded: reduced ERK1/2 activation to levels indistinguishable from WT littermates” in the assay on ERK1/2 (Fbn1^C1039G/+ mice, FIG. 10B).
